# Columns and labels:
# 29002 mRNA [1] = test: TaqMan analysis of 29002 mRNA in stimulated endothelial cells; format: cell-based
# Protocol: (§1) This example describes the TaqMan™ procedure. […] The TaqMan™ probe includes the oligonucleotide with a fluorescent reporter dye covalently linked to the 5′ end of the probe (such as FAM (6-carboxyfluorescein), TET (6-carboxy-4,7,2′,7′-tetrachlorofluorescein), JOE (6-carboxy-4,5-dichloro-2,7-dimethoxyfluorescein), or VIC) and a quencher dye (TAMRA (6-carboxy-N,N,N′,N′-tetramethylrhodamine) at the 3′ end of the probe.
# (§2) RNA was prepared using the trizol method and treated with DNase to remove contaminating genomic DNA. cDNA was synthesized using standard techniques.
# 17799 mRNA = settings: niacin marmoset models
# Excerpt: (§3) This example describes the TaqMan™ procedure. The Taqman™ procedure is a quantitative, reverse transcription PCR-based approach for detecting mRNA. The RT-PCR reaction exploits the 5′ nuclease activity of AmpliTaq Gold™ DNA Polymerase to cleave a TaqMan™ probe during PCR. Briefly, cDNA was generated from the samples of interest, e.g., heart, kidney, liver, skeletal muscle, and various vessels, and used as the starting material for PCR amplification. In addition to the 5′ and 3′ gene-specific primers, a gene-specific oligonucleotide probe (complementary to the region being amplified) was included in the reaction (i.e., the Taqman™ probe). […]
# (§4) During the PCR reaction, cleavage of the probe separates the reporter dye and the quencher dye, resulting in increased fluorescence of the reporter. Accumulation of PCR products is detected directly by monitoring the increase in fluorescence of the reporter dye. When the probe is intact, the proximity of the reporter dye to the quencher dye results in suppression of the reporter fluorescence. […]
# 32135 mRNA = settings: niacin models
# Excerpt: as §3, §4
# 6169 mRNA = test: TaqMan analysis of 6169 mRNA in an African Green Monkey model of atherosclerosis; format: in vivo
# Protocol: as §1, §2
# 21833 mRNA = test: TaqMan analysis of 21833 in cultured human monocytes and macrophages; format: cell-based; settings: after stimulation
# Protocol: as §1, §2
# 29002 mRNA [2] = test: TaqMan analysis of 29002 mRNA in stimulated macrophages; format: cell-based
# Protocol: as §1, §2
molecule,measurement,setting,value
"CC[C@H](C)C(=O)O[C@H]1CCC=C2C=C[C@H](C)[C@H](CC[C@@H]3C[C@@H](O)CC(=O)O3)[C@H]21 [mevastatin, reference compound]",29002 mRNA expression,29002 mRNA [1],down-regulated
O=C(O)c1cccnc1 [niacin],17799 mRNA expression,17799 mRNA,repressed
same,32135 mRNA expression,32135 mRNA,repressed
n-3 polyunsaturated fatty acid,6169 mRNA expression,6169 mRNA,repressed
"interferon gamma: interferon gamma used to stimulate monocytes and macrophages (protein, UniProt P01579 24-161, looked up) Interferon gamma: QDPYVKEAENLKKYFNAGHSDVADNGTLFLGILKNWKEESDRKIMQSQIVSFYFKLFKNFKDDQSIQKSVETIKEDMNVKFFNSNKKKRDDFEKLTNYSVTDLNVQRKAIHELIQVMAELSPAAKTGKRKRSQMLFRG",21833 expression,21833 mRNA,upregulated
"CD40 ligand: CD40 ligand used to stimulate macrophages (protein, UniProt P29965 113-261, looked up) CD40 ligand, soluble form: MQKGDQNPQIAAHVISEASSKTTSVLQWAEKGYYTMSNNLVTLENGKQLTVKRQGLYYIYAQVTFCSNREASSQAPFIASLCLKSPGRFERILLRAANTHSSAKPCGQQSIHLGGVFELQPGASVFVNVTDPSQVSHGTGFTSFGLLKL",29002 mRNA expression,29002 mRNA [2],upregulated
same,21833 expression,21833 mRNA,upregulated

# From US20030215840A1, “Methods and compositions for treating cardiovascular disease using 1682, 6169, 6193, 7771, 14395, 29002, 33216, 43726, 69292, 26156, 32427, 2402, 7747, 1720, 9151, 60491, 1371, 7077, 33207, 1419, 18036, 16105, 38650, 14245, 58848, 1870, 25856, 32394, 3484, 345, 9252, 9135, 10532, 18610, 8165, 2448, …” (Millennium Pharmaceuticals, Inc., priority 2002, published 2003)
